The test system of assay [1] is T1, AChE (Bam population, susceptible).
T1 construct: gene AChE1
The assay is described as follows: Ellman microplate kinetics, Michaelis-Menten fit. Format: biochemical, Agonoscena pistaciae. Particulars: DTNB; pH 7.0; 37°C; 405 nm; apparent, total AChE. An excerpt: Ellman microplate kinetics, Michaelis-Menten fit on AChE (Bam population, susceptible)
In general terms: DTNB colorimetry detects thiols as they appear.

Assay [2] deals with T2, AChE (Rafsanjan population, resistant; modified AChE).
T2 construct: gene AChE1
Particulars: read-out: I50, pH 7.0, 10 min preincubation at room temperature, thiocholine substrate and DTNB, covalent. An excerpt:
Ellman microplate inhibition assay on AChE (Rafsanjan population, resistant; modified AChE)

Assay [3] deals with T1, AChE (Bam population, susceptible). Nature of the assay: Ellman microplate inhibition assay. Particulars: pH 7.0; 10 min preincubation at room temperature; thiocholine substrate and DTNB; covalent; read-out: I50. Format: biochemical, Agonoscena pistaciae. An excerpt: Ellman microplate inhibition assay on AChE (Bam population, susceptible)
Assay [4] concerns T2, AChE (Rafsanjan population, resistant; modified AChE). Particulars: DTNB; pH 7.0; 37°C; 405 nm; apparent, total AChE. An excerpt:
Ellman microplate kinetics, Michaelis-Menten fit on AChE (Rafsanjan population, resistant; modified AChE)

Results on eleven compounds are retold here after publication PMC4199533, “Toxicological and biochemical characterizations of AChE in phosalone-susceptible and resistant populations of the common pistachio psyllid, Agonoscena pistaciae” (Journal of Insect Science, 2014).

As a reminder, the Km is the substrate concentration at which the rate is half of its maximum.

Read-outs that look alike come from different tables or passages of the source.

Consider `CC(=O)SCC[N+](C)(C)C` [ATC, acetylthiocholine iodide], for which the Michaelis-Menten constant (Km) in assay [1] is 1.25 ± 0.05 µM.

As for `CCCC(=O)SCC[N+](C)(C)C` [BTC, butyrylthiocholine iodide], the Km in assay [1] was determined as 4.3 ± 0.14 µM.

As for `CNC(=O)Oc1cccc(C)c1` [MTMC, m-tolyl methyl carbamate], the IC50 in assay [2] is 9450 ± 30 µM; in assay [3], 20430 ± 170 µM.

Regarding `CCC(=O)SCC[N+](C)(C)C` [PTC, propionylthiocholine iodide], the Km in assay [4] is 4.1 ± 0.06 µM; in assay [1], 1.4 ± 0.11 µM.

On to `CNC(=O)O/N=C/C(C)(C)SC` [aldicarb], for which the IC50 was determined as 2850 ± 60 µM in assay [2] and 2590 ± 20 µM in assay [3].

With `CNC(=O)Oc1cccc2ccccc12` [carbaryl], the IC50 is 2050 ± 30 µM in assay [2] and 2360 ± 20 µM in assay [3].

Take `CNC(=O)Oc1cccc2c1OC(C)(C)C2` [carbofuran]: the IC50 is 160 ± 10 µM in assay [2] and 380 ± 10 µM in assay [3].

Turning to `CNC(=O)Oc1ccc2c(c1)[C@]1(C)CCN(C)[C@@H]1N2C` [eserine], the IC50 in assay [2] turned out to be […]; in assay [3] it was […].

Turning to `CNC(=O)/C=C(\C)OP(=O)(OC)OC` [monocrotophos], the values for the IC50 in assay [2] (stated gain) and in assay [3] were 5280 ± 40 µM and 230 ± 10 µM, respectively.

Regarding `CCN(CC)C(=O)C(Cl)=C(C)OP(=O)(OC)OC` [phosphamidon], the IC50 stood at 4790 ± 20 µM in assay [2] (stated gain) and 220 ± 10 µM in assay [3].

In the case of `CNC(=O)Oc1ccccc1OC(C)C` [propoxur], the figures for the IC50 in assay [2] and in assay [3] were 830 ± 10 µM and 1060 ± 30 µM, respectively.
